In US8394792B2, “Heterocyclic derivatives” (C&C Research Laboratories, priority 2008, dated 2013) one finds IC50 data, which are given here for 12 compounds.

Structures can show the parent of a compound that is named as a salt.

One assay has as its target T1, hURAT1 (Homo sapiens, UniProt Q96S37).
T1 construct: expressed in transfected cells; host or cells: HEK293 (human kidney cell line), transient transfection with Fugene6
T1 sequence (Q96S37 1-553): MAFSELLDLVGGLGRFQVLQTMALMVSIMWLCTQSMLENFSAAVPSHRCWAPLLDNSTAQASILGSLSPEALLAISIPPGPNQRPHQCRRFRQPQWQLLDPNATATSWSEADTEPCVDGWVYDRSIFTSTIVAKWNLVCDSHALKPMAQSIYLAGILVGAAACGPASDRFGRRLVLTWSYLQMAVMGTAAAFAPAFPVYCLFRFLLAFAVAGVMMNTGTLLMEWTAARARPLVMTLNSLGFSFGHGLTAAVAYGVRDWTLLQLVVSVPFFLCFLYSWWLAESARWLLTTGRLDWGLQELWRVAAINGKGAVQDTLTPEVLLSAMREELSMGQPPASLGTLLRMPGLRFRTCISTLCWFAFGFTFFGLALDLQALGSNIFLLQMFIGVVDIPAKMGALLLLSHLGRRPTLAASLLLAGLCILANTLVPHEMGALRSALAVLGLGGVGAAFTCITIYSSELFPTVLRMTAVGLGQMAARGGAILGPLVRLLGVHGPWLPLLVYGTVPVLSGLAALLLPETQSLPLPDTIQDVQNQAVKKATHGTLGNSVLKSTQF
Briefly: Test for inhibiting urate reuptake activity via hURAT1 (uric acid transport assay in hURAT1-overexpressed HEK293 cell line). The assay is classed as cell-based. As to conditions: hURAT1-overexpressed HEK293 cells, [14C]-uric acid uptake, 100 μM uric acid; read-out: IC50 (μM) hURAT, level of uric acid reuptake inhibition. How it is done: Test for Inhibiting Urate Reuptake Activity Via hURAT1
[hURAT1 Overexpression by Transient Transfection in Human Kidney Cell Line]
A human kidney cell line, HEK293 was incubated by using OptiMEM medium in 100 mm dish at (3*10^6 cells) for 24 hours. In order for the expression of hURAT1, a transfection mixture solution (Fugene6 18 μl:hURAT1 DNA 6 μg=3:1, in 600 μl OptiMEM medium/dish) was prepared and kept for 15 minutes at room temperature. To each dish, 600 μl of the mixture solution was injected and then incubated in 37[…] cell incubator for 24 hours. The hURAT1-overexpressed HEK293 cell line was trypsinized and cells were harvested. Cells were resuspended in medium and seeded at 6*10^5 cells/well and incubated for 24 hours in 24-well plate which was surface-coated with Poly-D-Lysine.
[Uric Acid Transport Assay in hURAT1-Overexpressed HEK293 Cell Line]
For each concentration, the stock sample solution was diluted in PBS (1 μl in 800 μl of PBS) as 1.25 fold concentrated working sample solution to obtain final concentrations of 0.01, 0.1, 1 and 10 μM. The hURAT1-overexpressed cell line was washed with 1 ml of PBS. After washing, PBS was discarded and the sample solution was diluted by 1.25 fold with PBS. Preincubation of cells with 200 μl/well of sample solution made above was conducted for 30 minutes in 37[…] cell incubator. After the incubation, each well was treated with 50 μl of PBS containing 500 μM [^14C]-uric acid (final 100 μM of uric acid/well). Cells were incubated for 2 minutes. The cells were washed twice with 1 ml of PBS.
To measure the uric acid uptake, each well was treated with 150 μl of M-per buffer (PIERCE) and kept in 37° C. cell incubator for 30 minutes to make cell lysates. 150 μl of cell lysates was transferred into test tube and 4 ml of scintillation cocktail was added. CPM value of [^14C]-uric acid absorbed into cells was detected using liquid scintillation counter. IC50 for the inhibition of uric acid uptake by each test sample was analyzed by computational numerical processing.

The next assay deals with CYP2C9 (Homo sapiens, UniProt P11712). Briefly: biochemical.
Chain of CYP2C9 (P11712 whole entry): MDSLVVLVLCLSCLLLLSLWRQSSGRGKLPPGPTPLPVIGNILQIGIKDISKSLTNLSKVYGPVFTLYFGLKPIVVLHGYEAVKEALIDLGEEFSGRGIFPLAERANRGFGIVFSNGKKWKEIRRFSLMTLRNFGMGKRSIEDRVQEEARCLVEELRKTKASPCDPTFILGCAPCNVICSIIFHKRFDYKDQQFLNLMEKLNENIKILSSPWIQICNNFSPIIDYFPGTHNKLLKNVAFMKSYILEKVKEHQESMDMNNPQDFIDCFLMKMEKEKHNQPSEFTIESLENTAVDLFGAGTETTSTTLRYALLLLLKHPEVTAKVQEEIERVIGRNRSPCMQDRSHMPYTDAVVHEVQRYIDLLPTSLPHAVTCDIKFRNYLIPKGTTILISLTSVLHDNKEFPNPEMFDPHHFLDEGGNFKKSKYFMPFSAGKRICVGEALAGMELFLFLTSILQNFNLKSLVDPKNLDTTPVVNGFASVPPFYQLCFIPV

For the compound `O=C(c1cc(Br)c(O)c(Br)c1)N1CCOc2ncc(-c3ccc(OC(F)(F)F)cc3)cc21` [Compound 66, (3,5-dibromo-4-hydroxy-phenyl)-[7-(4-trifluoromethoxy-phenyl)-2,3-dihydro-pyrido[2,3-b][1,4]oxazin-1-yl]-methanone], the IC50 at hURAT1 was 0.0358 µM; on CYP2C9, 1340 nM.

With `O=C(c1cc(Br)c(O)c(Br)c1)N1CCOc2ncc(-c3ccc(C(F)(F)F)cc3)cc21` [Compound 45, (3,5-dibromo-4-hydroxy-phenyl)-[7-(4-trifluoromethyl-phenyl)-2,3-dihydro-pyrido[2,3-b][1,4]oxazin-1-yl]-methanone], the results for the IC50 at hURAT1 and against CYP2C9 were 0.0197 µM and 1180 nM, respectively.

With `COc1c(Br)cc(C(=O)N2CCOc3ncc(-c4cccc(N(C)C)c4)cc32)cc1Br` [Compound 48, (3,5-dibromo-4-methoxy-phenyl)-[7-(3-dimethylamino-phenyl)-2,3-dihydro-pyrido[2,3-b][1,4]oxazin-1-yl]-methanone], the values for the IC50 on hURAT1 and at CYP2C9 were 0.0933 µM and 1680 nM, respectively.

As for `O=C(c1cc(Br)c(O)c(Br)c1)N1CCOc2ncc(C3CC3)cc21` [Compound 9, (3,5-dibromo-4-hydroxy-phenyl)-(7-cyclopropyl-2,3-dihydro-pyrido[2,3-b][1,4]oxazin-1-yl)-methanone], the results for the IC50 at hURAT1 and on CYP2C9 were 0.02 µM and over 20000 nM, respectively.

On to `O=C(c1cc(Br)c(O)c(Br)c1)N1CCOc2ncc(-c3ccccc3C(F)(F)F)cc21` [Compound 46, (3,5-dibromo-4-hydroxy-phenyl)-[7-(2-trifluoromethyl-phenyl)-2,3-dihydro-pyrido[2,3-b][1,4]oxazin-1-yl]-methanone], for which the IC50 at hURAT1 is 0.0047 µM; against CYP2C9, 1090 nM.

With `O=C(c1ccc(O)c(Br)c1)N1CCOc2ccncc21` [Compound 11, (3-bromo-4-hydroxy-phenyl)-(2,3-dihydro-pyrido[4,3-b][1,4]oxazin-4-yl)-methanone bromic acid salt], the results for the IC50 on hURAT1 and against CYP2C9 were 0.175 µM and over 60000 nM, respectively.

`O=S(=O)(c1cc(Cl)c(O)c(Cl)c1)N1CCOc2ccncc21` [Compound 21, 2,6-dichloro-4-(2,3-dihydro-pyrido[4,3-b][1,4]oxazin-4-sulfonyl)-phenol]: the IC50 on hURAT1 was found to be 0.954 µM; against CYP2C9 it was 1110 nM.

As for `O=C(c1cc(Br)c(O)c(Br)c1)N1CCOc2ncc(-c3cccc([N+](=O)[O-])c3)cc21` [Compound 50, (3,5-dibromo-4-hydroxy-phenyl)-[7-(3-nitro-phenyl)-2,3-dihydro-pyrido[2,3-b][1,4]oxazin-1-yl]-methanone], the IC50 on hURAT1 worked out at 0.0044 µM; against CYP2C9 it was 1260 nM.

`N#Cc1ccc(-c2cnc3c(c2)N(C(=O)c2cc(Br)c(O)c(Br)c2)CCO3)cc1` [Compound 65, 4-[1-(3,5-dibromo-4-hydroxy-benzoyl)-2,3-dihydro-1H-pyrido[2,3-b][1,4]oxazin-7-yl]-benzonitrile]: the IC50 turned out to be 0.003 µM on hURAT1 and 12400 nM against CYP2C9.

Take `O=C(c1cc(Br)c(O)c(Br)c1)N1CCOc2ncc(Br)cc21` [Compound 25, (7-bromo-2,3-dihydro-pyrido[2,3-b][1,4]oxazin-1-yl)-(3,5-dibromo-4-hydroxy-phenyl)-methanone]: the values for the IC50 at hURAT1 and against CYP2C9 were 0.0073 µM and over 20000 nM, respectively.

For the compound `COc1c(Br)cc(C(=O)N2CCOc3ncc(-c4cccc([N+](=O)[O-])c4)cc32)cc1Br` [Compound 49, (3,5-dibromo-4-methoxy-phenyl)-[7-(3-nitro-phenyl)-2,3-dihydro-pyrido[2,3-b][1,4]oxazin-1-yl]-methanone], the IC50 is 0.311 µM at hURAT1 and over 20000 nM against CYP2C9.

Take `O=C(c1cc(Br)c(O)c(Br)c1)N1CCOc2ncc(-c3cncc4ccccc34)cc21` [Compound 61, (3,5-dibromo-4-hydroxy-phenyl)-(7-isoquinolin-4-yl-2,3-dihydro-pyrido[2,3-b][1,4]oxazin-1-yl)-methanone]: the 50% inhibitory concentration (IC50) at hURAT1 turned out to be 0.002 µM; against CYP2C9, 1230 nM.

One may read the IC50 as the concentration that inhibits the measured activity by half.
